These results are taken from ChEMBL document CHEMBL1155649, “A new inhibitor of 5'-hydroxyaverantin dehydrogenase, an enzyme involved in aflatoxin biosynthesis, from Trichoderma hamatum” (J Nat Prod, 2000).

Molecules are shown by their SMILES. Activity calls are given as the source filed them. No cut-off for these calls is given here.

A short description of assay [1]: Inhibition of Aspergillus parasiticus NIAH-26 5'-hydroxyaverantin dehydrogenase.
Assay [2] in a line: Inhibition of malate dehydrogenase at 3 mM.

One may read the IC50 as the point on the concentration scale where inhibition reaches its midpoint. As for `CO[C@H]1[C@@H](O)[C@@]2(C)c3ccc4c(c3-c3c2c(coc3=O)[C@@H]1O)CCC4=O` (relative stereo), it took 250 µM to reach half-maximal inhibition in assay [1] (IC50). Moreover, in assay [2], the outcome was inactive.
